The source of these data is the NIST ThermoML archive (doi:10.1016/j.jct.2016.05.014).

SMILES strings stand for the structures. Where “and” joins values, the source holds several entries; their conditions need not be identical. Equal values may be shown once. Numbers after ± are expanded uncertainties.

By mass density is commonly meant mass per unit of volume.

The conditions of data set [1]: Crystal.
Data set [2] in a line: molar heat capacity at constant pressure. As to conditions: 101.33 kPa, Crystal, Small sample (50 mg) DSC.

Take `CCCCC(C#N)(Cn1cncn1)c1ccc(Cl)cc1` (centres undefined): the mass density in data set [1] (296 K, 101.33 kPa, X-ray diffraction) stood at 1238 ± 6 kg/m3. Besides, the Normal melting temperature in data set [1] (visual observation) was found to be 70.30 ± 0.58 °C. Also, the “molar heat capacity at constant pressure” value in data set [2] (283.15 K) is 343.21 ± 9.5 J/K/mol and 340.09 ± 9.4 J/K/mol; in data set [2] (288.15 K), 349.62 ± 9.7 J/K/mol and 349.73 ± 9.7 J/K/mol; in data set [2] (293.15 K), 357.56 ± 9.9 J/K/mol and 356.25 ± 9.9 J/K/mol; in data set [2] (298.15 K), 364.3 ± 10 J/K/mol and 362.78 ± 10 J/K/mol; in data set [2] (303.15 K) it was 370.21 ± 10 J/K/mol and 369.3 ± 10 J/K/mol; in data set [2] (308.15 K), 375.66 ± 10 J/K/mol and 375.82 ± 10 J/K/mol. In addition, the “molar heat capacity at constant pressure” value was 381.03 ± 11 J/K/mol and 382.35 ± 11 J/K/mol in data set [2] (313.15 K); 386.69 ± 11 J/K/mol and 388.87 ± 11 J/K/mol in data set [2] (318.15 K); 393.03 ± 11 J/K/mol and 395.39 ± 11 J/K/mol in data set [2] (323.15 K); 400.42 ± 11 J/K/mol and 401.92 ± 11 J/K/mol in data set [2] (328.15 K); 408.44 ± 11 J/K/mol and 409.23 ± 11 J/K/mol in data set [2] (333.15 K).
For `c1ccc2ccccc2c1` [naphthalene], the “molar heat capacity at constant pressure” value in data set [2] (283.15 K) is recorded as 158.4 ± 3.9 J/K/mol; in data set [2] (288.15 K), 161.6 ± 4 J/K/mol; in data set [2] (293.15 K) it was 164.8 ± 4.1 J/K/mol; in data set [2] (298.15 K) it was 168 ± 4.2 J/K/mol; in data set [2] (303.15 K) it was 171.2 ± 4.2 J/K/mol; in data set [2] (308.15 K), 174.5 ± 4.3 J/K/mol. Also, the “molar heat capacity at constant pressure” value stood at 177.8 ± 4.4 J/K/mol in data set [2] (313.15 K); 181.1 ± 4.5 J/K/mol in data set [2] (318.15 K); 184.5 ± 4.6 J/K/mol in data set [2] (323.15 K); 187.9 ± 4.7 J/K/mol in data set [2] (328.15 K); 191.3 ± 4.7 J/K/mol in data set [2] (333.15 K).
